Laboratory results published in ChEMBL document CHEMBL2417501, “Synthesis of 4-aminoquinoline-pyrimidine hybrids as potent antimalarials and their mode of action studies” (Eur J Med Chem, 2013).
pEC50, pIC50: −log10 of the molar value.

Columns and labels:
Cytomegalovirus [1] = assay: Antiviral activity against Cytomegalovirus Davis infected in human HEL cells assessed as reduction of plaque formation; format: functional, organism-based; details: Human betaherpesvirus 5, Davis
Influenza A virus [2] = assay: Antiviral activity against influenza A virus H1N1 subtype infected in dog MDCK cells assessed as reduction of virus-induced cytopathogenicity by MTS assay; format: functional, organism-based
Human respirovirus 3 = assay: Antiviral activity against Parainfluenza-3 virus infected in african green monkey Vero cells assessed as reduction of virus-induced cytopathogenicity; format: functional, organism-based; details: Human respirovirus 3, Vero
[3] = Cytotoxicity against cat CRFK cells; format: cell-based, Felis catus; details: crfk
Human alphaherpesvirus 2 = assay: Antiviral activity against Herpes simplex virus-2 G infected in human HEL cells assessed as reduction of virus-induced cytopathogenicity; format: functional, organism-based; details: Human alphaherpesvirus 2, strain G
Coxsackievirus [4] = assay: Antiviral activity against Coxsackievirus B4 infected in african green monkey Vero cells assessed as reduction of virus-induced cytopathogenicity; format: functional, organism-based
[5] = Cytotoxicity against african green monkey Vero cells; format: cell-based; details: chlorocebus sabaeus
Human alphaherpesvirus 1 [6] = assay: Antiviral activity against Herpes simplex virus-1 KOS infected in human HEL cells assessed as reduction of virus-induced cytopathogenicity; format: functional, organism-based; details: Human alphaherpesvirus 1, KOS
Influenza A virus [7] = assay: Antiviral activity against influenza A virus […] subtype infected in dog MDCK cells assessed as reduction of virus-induced cytopathogenicity by MTS assay; format: functional, organism-based; details: read-out: EC50
Plasmodium falciparum [8] = assay: Antimalarial activity against chloroquine-sensitive Plasmodium falciparum D10 by two-fold dilution technique; format: functional, organism-based
[9] = Cytotoxicity against human HeLa cells; format: cell-based
Human alphaherpesvirus 3 [10] = assay: Antiviral activity against TK-positive Varicella-zoster virus OKA infected in human HEL cells assessed as reduction of plaque formation; format: functional, cell-based; details: Human alphaherpesvirus 3, strain Oka vaccine
Cytomegalovirus [11] = assay: Antiviral activity against Cytomegalovirus AD-169 infected in human HEL cells assessed as reduction of plaque formation; format: functional, organism-based; details: Human betaherpesvirus 5, AD-169, HEL
Influenza B virus = assay: Antiviral activity against influenza B virus infected in dog MDCK cells assessed as reduction of virus-induced cytopathogenicity by MTS assay; format: functional, organism-based
Feline coronavirus = assay: Antiviral activity against Feline coronavirus infected in cat CRFK cells assessed as reduction of virus-induced cytopathogenicity by MTS assay; format: functional, organism-based; details: Alphacoronavirus 1, CRFK
[12] = tested on: Vesicular stomatitis virus; assay: Antiviral activity against Vesicular stomatitis virus infected in human HEL cells assessed as reduction of virus-induced cytopathogenicity; format: functional, organism-based
[13] = tested on: Vesicular stomatitis virus; assay: Antiviral activity against Vesicular stomatitis virus infected in human HeLa cells assessed as reduction of virus-induced cytopathogenicity; format: functional, organism-based
Coxsackievirus [14] = assay: Antiviral activity against Coxsackievirus B4 infected in human HeLa cells assessed as reduction of virus-induced cytopathogenicity; format: functional, organism-based
Felid alphaherpesvirus 1 = assay: Antiviral activity against feline herpesvirus infected in cat CRFK cells assessed as reduction of virus-induced cytopathogenicity by MTS assay; format: functional, organism-based; details: Felid alphaherpesvirus 1, CRFK
[15] = tested on: Mammalian orthoreovirus 1; assay: Antiviral activity against Reovirus-1 infected in african green monkey Vero cells assessed as reduction of virus-induced cytopathogenicity; format: functional, organism-based; details: Mammalian orthoreovirus 1, Vero
MDCK = assay: (§1) Cytotoxicity against MDCK cells assessed as cell viability after 4 days by MTS assay; format: cell-based, Canis lupus familiaris; details: dog, mdck, 96 h
[16] = as §1; format: cell-based, Canis lupus familiaris; details: dog, MDCK cells
Punta Toro virus = assay: Antiviral activity against […] infected in african green monkey Vero cells assessed as reduction of virus-induced cytopathogenicity; format: functional, organism-based
[17] = Inhibition of beta-hematin formation at 1 mg/ml; format: functional
Human alphaherpesvirus 1 [18] = assay: Antiviral activity against TK-negative Herpes simplex virus 1 KOS infected in human HEL cells assessed as reduction of virus-induced cytopathogenicity; format: functional, organism-based; details: Human alphaherpesvirus 1, KOS
Sindbis virus = assay: Antiviral activity against Sindbis virus infected in african green monkey Vero cells assessed as reduction of virus-induced cytopathogenicity; format: functional, organism-based
[19] = Cytotoxicity against human HEL cells; format: cell-based
Human alphaherpesvirus 3 [20] = assay: Antiviral activity against […] Varicella-zoster virus 07-1 infected in human HEL cells assessed as reduction of plaque formation; format: functional, organism-based; details: Human alphaherpesvirus 3, 07-1, HEL
[21] = tested on: Respiratory syncytial virus; assay: Antiviral activity against Respiratory syncytial virus infected in human HeLa cells assessed as reduction of virus-induced cytopathogenicity; format: functional, organism-based
Plasmodium falciparum [22] = assay: Antimalarial activity against chloroquine-resistant Plasmodium falciparum Dd2; format: functional, organism-based
[23] = Selectivity index, ratio of CC50 for MDCK cells to IC50 for chloroquine-resistant Plasmodium falciparum Dd2; format: functional

Structure (SMILES)	pEC50 (Cytomegalovirus [1])	pEC50 (Influenza A virus [2])	pEC50 (Human respirovirus 3)	CC50 [3] [µM]	pEC50 (Human alphaherpesvirus 2)	pEC50 (Coxsackievirus [4])	MCC [5] [µM]	pEC50 (Human alphaherpesvirus 1 [6])	pEC50 (Influenza A virus [7])	MCC [9] [µM]	pEC50 (Human alphaherpesvirus 3 [10])	pEC50 [12]	pEC50 [13]	pEC50 (Coxsackievirus [14])	pEC50 [15]	pEC50 (Punta Toro virus)	pEC50 (Sindbis virus)	MCC [19] [µM]	pEC50 (Human alphaherpesvirus 3 [20])	pEC50 [21]	further results
CCOC(=O)c1c(C)nc(NCCCCNc2ccnc3cc(Cl)ccc23)nc1-c1ccc(Cl)cc1	< 5.40	< 6.10	< 6.10	> 100	< 4.70	< 6.10	4	< 4.70	< 6.10	> 100	< 5.40	< 4.70	< 4.00	< 4.00	< 6.10	< 6.10	< 6.10	20	< 5.40	< 4.00	pIC50 (Plasmodium falciparum [8]): 5.72; pEC50 (Cytomegalovirus [11]): < 5.40; pEC50 (Influenza B virus): < 6.10; pEC50 (Feline coronavirus): < 4.00; pEC50 (Felid alphaherpesvirus 1): < 4.00; CC50 (MDCK): 2.2 µM; MCC at 96 h [16]: ≥ 0.8 µM; inhibition [17]: 56%; pEC50 (Human alphaherpesvirus 1 [18]): < 4.70
O=c1[nH]c(=O)n([C@H]2C[C@H](O)[C@@H](CO)O2)cc1/C=C/Br [BRIVUDINE]					3.84						5.42	< 3.60						> 250	3.84		
Nc1ncnc2c1ncn2C[C@H](O)CO [(S)-DHPA]			3.84			< 3.60	> 250			> 250			< 3.60	< 3.60	< 3.60	< 3.60	< 3.60			< 3.60	
CCOC(=O)c1c(C)nc(OCCCNc2ccnc3cc(Cl)ccc23)nc1-c1ccccc1	5.60	< 5.40	< 4.70	> 100	< 4.00	< 4.70	100	< 4.00	< 5.40	> 100	< 5.40	< 4.00	< 4.00	< 4.00	< 4.70	< 4.70	< 4.70	> 4	< 5.40	< 4.00	pIC50 (Plasmodium falciparum [22]): 6.32; pEC50 (Cytomegalovirus [11]): 5.70; pEC50 (Influenza B virus): < 5.40; Ratio CC50/IC50 [23]: 43.6; pEC50 (Feline coronavirus): < 4.00; pEC50 (Felid alphaherpesvirus 1): < 4.00; CC50 (MDCK): 21.1 µM; MCC at 96 h [16]: 20 µM; inhibition [17]: 87%; pEC50 (Human alphaherpesvirus 1 [18]): < 4.00
